From patent US6479435B1, “Diaryl ethers and processes for their preparation and herbicidal and desiccant compositions containing them” (ISK Americas Incorporated, priority 1997, dated 2002)

Columns and labels:
Type in all cases: in vivo
[1] = tested on: Johnsongrass (Sorghum halepense, SORHA); assay: Pre-emerge greenhouse herbicide test, phytotoxicity rating; settings: 14 days after application, rating scale 0-100
Procedure, shortened: (§1)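 Seeds sown in sandy loam mix one day before track-sprayer application of compounds in acetone at 125–1000 g ai/ha (187 l/ha), then surface-watered to incorporate and bottom-watered. Visual rating 14 days after application on a 0–100 scale (0 = no damage, 100 = all plants dead).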

[2] = tested on: barnyardgrass (Echinochloa crusgalli, ECHCG); assay: as above; settings: 14 days after application, rating scale 0-100
Procedure, shortened: as §1

[3] = tested on: common ragweed (Ambrosia artemisiifolia L., AMBEL); assay: as above; settings: 14 days after application, rating scale 0-100
Procedure, shortened: as §1

[4] = tested on: green foxtail (Setaria viridis, SETVI); assay: as above; settings: 14 days after application, rating scale 0-100
Procedure, shortened: as §1

[5] = tested on: ivyleaf morningglory (Ipomoea hederacea, IPOHE); assay: as above; settings: 14 days after application, rating scale 0-100
Procedure, shortened: as §1

[6] = tested on: lambsquarters (Chenopodium album, CHEAL); assay: as above; settings: 14 days after application, rating scale 0-100
Procedure, shortened: as §1

[7] = tested on: large crabgrass (Digitaria sanguinalis, DIGSA); assay: as above; settings: 14 days after application, rating scale 0-100
Procedure, shortened: as §1

[8] = tested on: redroot pigweed (Amaranthus retroflexus, AMARE); assay: as above; settings: 14 days after application, rating scale 0-100
Procedure, shortened: as §1

[9] = tested on: sicklepod (Cassia obtusifolia, CASOB); assay: as above; settings: 14 days after application, rating scale 0-100
Procedure, shortened: as §1

[10] = tested on: velvetleaf (Abutilon theophrasti, ABUTH); assay: as above; settings: 14 days after application, rating scale 0-100
Procedure, shortened: as §1

[11] = tested on: field corn (Zea mays L., var. Dekalb 535, CORN); assay: Pre-emerge greenhouse test, crop damage rating; settings: 14 days after application, rating scale 0-100
Procedure, shortened: as §1

[12] = tested on: upland rice (Oryza sp., var.Tebonnet, RICE); assay: Pre-emerge greenhouse test, crop damage rating; settings: 14 days after application, rating scale 0-100
Procedure, shortened: as §1

[13] = tested on: soybean (Glycine max L., var. Pella 86, SOY); assay: Pre-emerge greenhouse test, crop damage rating; settings: 14 days after application, rating scale 0-100
Procedure, shortened: as §1

[14] = tested on: common ragweed (Ambrosia artemisiifolia L., AMBEL); assay: Post-emerge greenhouse herbicide test, phytotoxicity rating; settings: 14 days after application
Procedure, shortened: (§2)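 Compounds in acetone with 0.25% v/v non-ionic surfactant were track-sprayed at 187 l/ha over plants at the 2-3 leaf stage, at 63 to 1000 g ai/ha. Pots were bottom-watered. Injury was scored visually 14 days later on a 0-100 scale, where 0 is no damage and 100 is complete plant death.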

[15] = tested on: Johnsongrass (Sorghum halepense, SORHA); assay: as above; settings: 14 days after application
Procedure, shortened: as §2

[16] = tested on: barnyardgrass (Echinochloa crusgalli, ECHCG); assay: as above; settings: 14 days after application
Procedure, shortened: as §2

[17] = tested on: green foxtail (Setaria viridis, SETVI); assay: as above; settings: 14 days after application
Procedure, shortened: as §2

[18] = tested on: ivyleaf morningglory (Ipomoea hederacea, IPOHE); assay: as above; settings: 14 days after application
Procedure, shortened: as §2

[19] = tested on: lambsquarters (Chenopodium album, CHEAL); assay: as above; settings: 14 days after application
Procedure, shortened: as §2

[20] = tested on: large crabgrass (Digitaria sanguinalis, DIGSA); assay: as above; settings: 14 days after application
Procedure, shortened: as §2

[21] = tested on: redroot pigweed (Amaranthus retroflexus, AMARE); assay: as above; settings: 14 days after application
Procedure, shortened: as §2

[22] = tested on: sicklepod (Cassia obtusifolia, CASOB); assay: as above; settings: 14 days after application
Procedure, shortened: as §2

[23] = tested on: velvetleaf (Abutilon theophrasti, ABUTH); assay: as above; settings: 14 days after application
Procedure, shortened: as §2

[24] = tested on: field corn (Zea mays L., var. Dekalb 535, CORN); assay: Post-emerge greenhouse test, crop damage rating; settings: 14 days after application
Procedure, shortened: as §2

[25] = tested on: upland rice (Oryza sp., var.Tebonnet, RICE); assay: Post-emerge greenhouse test, crop damage rating; settings: 14 days after application
Procedure, shortened: as §2

[26] = tested on: soybean (Glycine max L., var. Pella 86, SOY); assay: Post-emerge greenhouse test, crop damage rating; settings: 14 days after application
Procedure, shortened: as §2

## O=c1n(-c2cc(Oc3ccccc3[N+](=O)[O-])c(Cl)cc2F)c(=S)n2n1CCCC2 [Compound 8-6]
[1]; 125 g ai/ha
  phytotoxicity rating SORHA: 20
[1]; 500 g ai/ha
  phytotoxicity rating SORHA: 50
[2]; 125 g ai/ha
  phytotoxicity rating ECHCG: 20
[2]; 500 g ai/ha
  phytotoxicity rating ECHCG: 50
[3]; 125 g ai/ha
  phytotoxicity rating AMBEL: 40
[3]; 500 g ai/ha
  phytotoxicity rating AMBEL: 100
[4]; 125 g ai/ha
  phytotoxicity rating SETVI: 95
[4]; 500 g ai/ha
  phytotoxicity rating SETVI: 100
[5]; 125 g ai/ha
  phytotoxicity rating IPOHE: 50
[5]; 500 g ai/ha
  phytotoxicity rating IPOHE: 90
[6]; 125 g ai/ha
  phytotoxicity rating CHEAL: 100
[6]; 500 g ai/ha
  phytotoxicity rating CHEAL: 100
[7]; 125 g ai/ha
  phytotoxicity rating DIGSA: 40
[7]; 500 g ai/ha
  phytotoxicity rating DIGSA: 100
[8]; 125 g ai/ha
  phytotoxicity rating AMARE: 100
[8]; 500 g ai/ha
  phytotoxicity rating AMARE: 100
[9]; 125 g ai/ha
  phytotoxicity rating CASOB: 100
[9]; 500 g ai/ha
  phytotoxicity rating CASOB: 95
[10]; 125 g ai/ha
  phytotoxicity rating ABUTH: 100
[10]; 500 g ai/ha
  phytotoxicity rating ABUTH: 100
[11]; 125 g ai/ha
  crop damage rating CORN: 0
[11]; 500 g ai/ha
  crop damage rating CORN: 0
[12]; 125 g ai/ha
  crop damage rating RICE: 10
[12]; 500 g ai/ha
  crop damage rating RICE: 40
[13]; 125 g ai/ha
  crop damage rating SOY: 20
[13]; 500 g ai/ha
  crop damage rating SOY: 40
[14]; 63 g al/ha
  AMBEL phytotoxicity rating (0-100): 60
[14]; 500 g al/ha
  AMBEL phytotoxicity rating (0-100): 90
[15]; 63 g al/ha
  SORHA phytotoxicity rating (0-100): 0
[15]; 500 g al/ha
  SORHA phytotoxicity rating (0-100): 30
[16]; 63 g al/ha
  ECHCG phytotoxicity rating (0-100): 10
[16]; 500 g al/ha
  ECHCG phytotoxicity rating (0-100): 30
[17]; 63 g al/ha
  SETVI phytotoxicity rating (0-100): 30
[17]; 500 g al/ha
  SETVI phytotoxicity rating (0-100): 90
[18]; 63 g al/ha
  IPOHE phytotoxicity rating (0-100): 90
[18]; 500 g al/ha
  IPOHE phytotoxicity rating (0-100): 100
[19]; 63 g al/ha
  CHEAL phytotoxicity rating (0-100): 90
[19]; 500 g al/ha
  CHEAL phytotoxicity rating (0-100): 99
[20]; 63 g al/ha
  DIGSA phytotoxicity rating (0-100): 0
[20]; 500 g al/ha
  DIGSA phytotoxicity rating (0-100): 30
[21]; 63 g al/ha
  AMARE phytotoxicity rating (0-100): 100
[21]; 500 g al/ha
  AMARE phytotoxicity rating (0-100): 100
[22]; 63 g al/ha
  CASOB phytotoxicity rating (0-100): 60
[22]; 500 g al/ha
  CASOB phytotoxicity rating (0-100): 100
[23]; 63 g al/ha
  ABUTH phytotoxicity rating (0-100): 100
[23]; 500 g al/ha
  ABUTH phytotoxicity rating (0-100): 100
[24]; 63 g al/ha
  CORN crop damage rating (0-100): 5
[24]; 500 g al/ha
  CORN crop damage rating (0-100): 20
[25]; 63 g al/ha
  RICE crop damage rating (0-100): 5
[25]; 500 g al/ha
  RICE crop damage rating (0-100): 50
[26]; 63 g al/ha
  SOY crop damage rating (0-100): 70
[26]; 500 g al/ha
  SOY crop damage rating (0-100): 90

## O=c1n(CCCF)nnn1-c1cc(Oc2ncccc2[N+](=O)[O-])c(Cl)cc1F [Compound 6-2]
[1]; 125 g ai/ha
  phytotoxicity rating SORHA: 0
[1]; 500 g ai/ha
  phytotoxicity rating SORHA: 0
[2]; 125 g ai/ha
  phytotoxicity rating ECHCG: 0
[2]; 500 g ai/ha
  phytotoxicity rating ECHCG: 10
[3]; 125 g ai/ha
  phytotoxicity rating AMBEL: 30
[3]; 500 g ai/ha
  phytotoxicity rating AMBEL: 40
[4]; 125 g ai/ha
  phytotoxicity rating SETVI: 30
[4]; 500 g ai/ha
  phytotoxicity rating SETVI: 70
[5]; 125 g ai/ha
  phytotoxicity rating IPOHE: 10
[5]; 500 g ai/ha
  phytotoxicity rating IPOHE: 40
[6]; 125 g ai/ha
  phytotoxicity rating CHEAL: 100
[6]; 500 g ai/ha
  phytotoxicity rating CHEAL: 100
[7]; 125 g ai/ha
  phytotoxicity rating DIGSA: 0
[7]; 500 g ai/ha
  phytotoxicity rating DIGSA: 60
[8]; 125 g ai/ha
  phytotoxicity rating AMARE: 95
[8]; 500 g ai/ha
  phytotoxicity rating AMARE: 99
[9]; 125 g ai/ha
  phytotoxicity rating CASOB: 20
[9]; 500 g ai/ha
  phytotoxicity rating CASOB: 0
[10]; 125 g ai/ha
  phytotoxicity rating ABUTH: 90
[10]; 500 g ai/ha
  phytotoxicity rating ABUTH: 100
[11]; 125 g ai/ha
  crop damage rating CORN: 0
[11]; 500 g ai/ha
  crop damage rating CORN: 0
[12]; 125 g ai/ha
  crop damage rating RICE: 20
[12]; 500 g ai/ha
  crop damage rating RICE: 10
[13]; 125 g ai/ha
  crop damage rating SOY: 10
[13]; 500 g ai/ha
  crop damage rating SOY: 15
[14]; 63 g al/ha
  AMBEL phytotoxicity rating (0-100): 10
[14]; 500 g al/ha
  AMBEL phytotoxicity rating (0-100): 30
[15]; 63 g al/ha
  SORHA phytotoxicity rating (0-100): 0
[15]; 500 g al/ha
  SORHA phytotoxicity rating (0-100): 20
[16]; 63 g al/ha
  ECHCG phytotoxicity rating (0-100): 0
[16]; 500 g al/ha
  ECHCG phytotoxicity rating (0-100): 30
[17]; 63 g al/ha
  SETVI phytotoxicity rating (0-100): 10
[17]; 500 g al/ha
  SETVI phytotoxicity rating (0-100): 10
[18]; 63 g al/ha
  IPOHE phytotoxicity rating (0-100): 20
[18]; 500 g al/ha
  IPOHE phytotoxicity rating (0-100): 90
[19]; 63 g al/ha
  CHEAL phytotoxicity rating (0-100): 50
[19]; 500 g al/ha
  CHEAL phytotoxicity rating (0-100): 90
[20]; 63 g al/ha
  DIGSA phytotoxicity rating (0-100): 0
[20]; 500 g al/ha
  DIGSA phytotoxicity rating (0-100): 0
[21]; 63 g al/ha
  AMARE phytotoxicity rating (0-100): 40
[21]; 500 g al/ha
  AMARE phytotoxicity rating (0-100): 95
[22]; 63 g al/ha
  CASOB phytotoxicity rating (0-100): 0
[22]; 500 g al/ha
  CASOB phytotoxicity rating (0-100): 10
[23]; 63 g al/ha
  ABUTH phytotoxicity rating (0-100): 98
[23]; 500 g al/ha
  ABUTH phytotoxicity rating (0-100): 100
[24]; 63 g al/ha
  CORN crop damage rating (0-100): 5
[24]; 500 g al/ha
  CORN crop damage rating (0-100): 5
[25]; 63 g al/ha
  RICE crop damage rating (0-100): 0
[25]; 500 g al/ha
  RICE crop damage rating (0-100): 30
[26]; 63 g al/ha
  SOY crop damage rating (0-100): 20
[26]; 500 g al/ha
  SOY crop damage rating (0-100): 30
